Drawing on ChEMBL document CHEMBL4000182, “Structure-activity relationships of benzothiazole GPR35 antagonists” (Bioorg Med Chem Lett, 2017), this text covers IC50 and EC50 for twelve molecules.

SMILES strings stand for the structures. Some results are limits rather than exact numbers.

In the first experiment the target is T1, G-protein coupled receptor 35 (Homo sapiens, UniProt Q9HC97). The experiment in a line: Antagonist activity at HA tagged GPR35a (unknown origin) expressed in human U2OS cells co-expressing GFP-fused beta arrestin-2 assessed as inhibition of zaprinast induced effect. In kind it is cell-based.
T1 sequence (Q9HC97 whole entry, the tested form may be a part): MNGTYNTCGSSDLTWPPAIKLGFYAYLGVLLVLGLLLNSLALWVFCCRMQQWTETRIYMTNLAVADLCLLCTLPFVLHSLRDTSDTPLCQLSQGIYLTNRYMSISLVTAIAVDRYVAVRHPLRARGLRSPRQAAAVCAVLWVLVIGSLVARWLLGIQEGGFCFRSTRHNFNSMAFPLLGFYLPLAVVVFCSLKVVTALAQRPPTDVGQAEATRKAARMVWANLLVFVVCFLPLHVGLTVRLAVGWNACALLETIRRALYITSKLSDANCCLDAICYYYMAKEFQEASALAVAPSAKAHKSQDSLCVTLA
For `O=C(Nc1ccc2nc(SCc3ccc(Cl)cc3)sc2c1)c1ccccc1C(=O)N1CCOCC1`, the half-maximal inhibitory concentration (IC50) turned out to be 4.56 µM. Same read-out and setting: under `O=C(Nc1ccc2nc(SCc3ccccc3)sc2c1)c1ccccc1C(=O)N1CCOCC1` stands 7.23 µM. The same measure, in the same setting: to `O=C(Nc1ccc2nc([S+]([O-])Cc3ccc(Cl)cc3)sc2c1)c1ccccc1C(=O)N1CCOCC1` (stereo not drawn) belongs 13 µM; to `O=C(Nc1ccc2nc(SCc3ccc(Cl)cc3)sc2c1)c1ccccc1C(=O)N1CCCCC1`, more than 30 µM. The same measure, in the same setting: to `O=C(Nc1ccc2nc([S@+]([O-])Cc3ccc(Cl)cc3)sc2c1)c1ccccc1C(=O)N1CCOCC1` belongs more than 30 µM; to `CC(Sc1nc2ccc(NC(=O)c3ccccc3C(=O)N3CCOCC3)cc2s1)c1ccc(Cl)cc1` (stereo not drawn), 17 µM; to `O=C(Nc1ccc2nc(S(=O)(=O)Cc3ccc(Cl)cc3)sc2c1)c1ccccc1C(=O)N1CCOCC1`, 5.24 µM. `O=C(Nc1ccc2nc(SCc3ccncc3)sc2c1)c1ccccc1C(=O)N1CCOCC1`: the 50% inhibitory concentration (IC50) was more than 30 µM. The same measure, in the same setting: under `O=C(Nc1ccc2nc(SCc3ccc(Cl)cc3)sc2c1)c1ccccc1C(=O)N1CCCC1` stands more than 30 µM; under `O=C(Nc1ccc2nc([S@@+]([O-])Cc3ccc(Cl)cc3)sc2c1)c1ccccc1C(=O)N1CCOCC1`, more than 30 µM; under `O=C(Nc1ccc2nc(SCc3ccc(Cl)cc3)[nH]c2c1)c1ccccc1C(=O)N1CCOCC1`, more than 30 µM.

Another experiment concerns the target T1, G-protein coupled receptor 35. The experiment in a line: Antagonist activity at GPR35 (unknown origin).
Take `O=C(O)c1cc(=O)c2ccccc2[nH]1` [TRANSTORINE]: 39 µM corresponded to half-maximal inhibition (IC50).

For another experiment the target is unchanged. The experiment in a line: Antagonist activity at human N-terminal HA-tagged GPR35a expressed in human U2OS cells co-expressing GFP-fused beta arrestin-2 assessed as inhibition of agonist induced redistribution of GFP-fused beta arrestin-2 preincubated for 15 mins followed by agonist addition by fluorescence assay. It is filed as cell-based.
On to `O=C(Nc1ccc2nc(SCc3ccc(Cl)cc3)sc2c1)c1ccccc1C(=O)N1CCOCC1`, for which the EC50 came out at 0.55 µM.

For orientation: IC50 means the point on the concentration scale where inhibition reaches its midpoint. In general, EC50 refers to the concentration needed to bring the measured effect to its halfway point.
